The record followed here is patent US6362369B1, “Phthalic acid diamide derivatives fluorine-containing aniline compounds as starting material, agricultural and horticultural insecticides, and a method for application of the insecticides” (Nihon Nohyaku Co., Ltd., priority 1997, dated 2002).

Common to all, as to assay type: in vivo
The test system of test [1] is common cutworm (Spodoptera Litura). The test can be described thus: Insecticidal effect on common cutworm (Test Example 2). As to conditions: 500 ppm, cabbage leaf dip, second-instar larvae, eight days after inoculation, 25° C. The essentials: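 After the treated material air-dries, it goes into a dish, second-instar larvae are added, and the dish is closed. Incubation runs at 25° C. On day eight, dead and living larvae are scored, and the calculated mortality is rated on an effect scale.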

Test [2] has as its system diamondback moth (Plutella xylostella). The test can be described thus: Insecticidal effect on diamondback moth (Test Example 1). To be noted: mortality judged according to the criterion shown in Test Example 1. The essentials:
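Eggs laid by adult moths on Chinese cabbage seedlings, which were immersed in test solution, air-dried and kept at 25 °C. Hatched insects counted 6 days after immersion and mortality calculated, with effect graded by criterion; triplicate groups of 10 insects.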

Test [3] concerns rice leafroller (Cnaphalocrocis medinalis). As to the kind of experiment: Insecticidal effect on rice leafroller (Test Example 3). As to conditions: 500 ppm, rice lamina dip, third-instar larvae, four days after inoculation, 25° C., humidity 70%. The essentials:
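Groups of 10 third-instar larvae, in triplicate, are placed on air-dried lamina resting on wet filter paper. Incubation runs four days at 25° C with 70% humidity before survivors and dead are tallied.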

Regarding `Cc1cc(OC(F)(F)C(F)(Cl)Cl)ccc1NC(=O)c1cccc([N+](=O)[O-])c1C(=O)NC(C)C` [compound 715], the “Insecticidal effect on common cutworm (Test Example 2), judged grade” value (“Insecticidal effect on common cutworm” below) in test [1] is listed as “A (100)”. For the same compound, in test [2], the “Insecticidal effect on diamondback moth (Test Example 1), judged grade” value (shortened to “Insecticidal effect on diamondback moth”) is “A (100)”. Further, the “Insecticidal effect on rice leafroller (Test Example 3), judged grade” value (shortened to “Insecticidal effect on rice leafroller”) in test [3] is on record as “A (100)”.
For the compound `Cc1cc(OC(F)(F)C(F)C(F)(F)F)ccc1NC(=O)c1cccc([N+](=O)[O-])c1C(=O)NC(C)C` (stereo not drawn) [compound 716], the “Insecticidal effect on common cutworm” value in test [1] is recorded as “A (100)”. In test [2], the “Insecticidal effect on diamondback moth” value was “A (100)”. Besides, the “Insecticidal effect on rice leafroller” value in test [3] is recorded as “A (100)”.
Consider `Cc1cc(Sc2ccc(Cl)cc2)ccc1NC(=O)c1cccc([N+](=O)[O-])c1C(=O)NC(C)C` [compound 727], for which the “Insecticidal effect on common cutworm” value in test [1] is recorded as “B (99-90)”. Moreover, in test [2], the “Insecticidal effect on diamondback moth” value is given as “A (100)”. Besides, the “Insecticidal effect on rice leafroller” value in test [3] is “A (100)”.
Regarding `CC(C)NC(=O)c1cccc([N+](=O)[O-])c1C(=O)Nc1ccc(C(F)(F)C(F)(F)C(F)(F)F)cc1Cl` [compound 741], the “Insecticidal effect on common cutworm” value in test [1] was “A (100)”. For the same compound, the “Insecticidal effect on diamondback moth” value in test [2] was “A (100)”. In test [3], the “Insecticidal effect on rice leafroller” value is “A (100)”.
As for `CCc1cccc(C(=O)NC(C)C)c1C(=O)Nc1ccc(Cl)cc1C` [compound 753], in test [1], the “Insecticidal effect on common cutworm” value is listed as “A (100)”. The “Insecticidal effect on diamondback moth” value in test [2] was “A (100)”. In addition, in test [3], the “Insecticidal effect on rice leafroller” value is recorded as “D (79-50)”.
`COc1cccc(C(=O)Nc2ccc(OC(F)(F)F)cc2)c1C(=O)NC(C)C` [compound 767]: the “Insecticidal effect on common cutworm” value in test [1] is listed as “C (89-80)”. Moreover, the “Insecticidal effect on diamondback moth” value in test [2] was “A (100)”. The “Insecticidal effect on rice leafroller” value in test [3] is reported as “A (100)”.
Turning to `COc1cccc(C(=O)Nc2ccc(Br)cc2C)c1C(=O)NC(C)C` [compound 768], in test [1], the “Insecticidal effect on common cutworm” value is “B (99-90)”. Moreover, in test [2], the “Insecticidal effect on diamondback moth” value was “A (100)”. The “Insecticidal effect on rice leafroller” value in test [3] was “A (100)”.
Regarding `COc1cccc(C(=O)NC(C)C)c1C(=O)Nc1cc(Cl)ccc1C` [compound 770], the “Insecticidal effect on common cutworm” value in test [1] is listed as “A (100)”. Also, in test [2], the “Insecticidal effect on diamondback moth” value is listed as “A (100)”. Also, the “Insecticidal effect on rice leafroller” value in test [3] is recorded as “A (100)”.
Take `CSc1cccc(C(=O)Nc2cccc(Cl)c2C)c1C(=O)NC(C)C` [compound 780]: in test [1], the “Insecticidal effect on common cutworm” value is “A (100)”. Besides, the “Insecticidal effect on diamondback moth” value in test [2] is “A (100)”. In test [3], the “Insecticidal effect on rice leafroller” value was “A (100)”.
For `CSc1cccc(C(=O)Nc2ccc(Cl)cc2C)c1C(=O)NC(C)C` [compound 781], the “Insecticidal effect on common cutworm” value in test [1] is recorded as “A (100)”. Moreover, in test [2], the “Insecticidal effect on diamondback moth” value was “A (100)”. The “Insecticidal effect on rice leafroller” value in test [3] is reported as “A (100)”.
On to `CSc1cccc(C(=O)Nc2ccc(OC(F)F)cc2C)c1C(=O)NC(C)C` [compound 783], for which the “Insecticidal effect on common cutworm” value in test [1] is on record as “A (100)”. For the same compound, the “Insecticidal effect on diamondback moth” value in test [2] was “A (100)”. Also, the “Insecticidal effect on rice leafroller” value in test [3] was “A (100)”.
For the compound `Cc1cc(OC(F)F)ccc1NC(=O)c1cccc(S(C)(=O)=O)c1C(=O)NC(C)C` [compound 795], in test [1], the “Insecticidal effect on common cutworm” value is recorded as “B (99-90)”. Also, the “Insecticidal effect on diamondback moth” value in test [2] is “A (100)”. Further, the “Insecticidal effect on rice leafroller” value in test [3] is “A (100)”.
For the compound `C#Cc1cccc(C(=O)NC(C)C)c1C(=O)Nc1ccc(Cl)cc1C` [compound 801], in test [1], the “Insecticidal effect on common cutworm” value is listed as “A (100)”. The “Insecticidal effect on diamondback moth” value in test [2] is on record as “A (100)”. In test [3], the “Insecticidal effect on rice leafroller” value is given as “D (79-50)”.
In the case of `Cc1cc(OC(F)F)ccc1NC(=O)c1ccc2ccccc2c1C(=O)NC(C)C` [compound 819], in test [1], the “Insecticidal effect on common cutworm” value is reported as “B (99-90)”. Also, the “Insecticidal effect on diamondback moth” value in test [2] is “A (100)”. Also, the “Insecticidal effect on rice leafroller” value in test [3] was “A (100)”.
Regarding `CCC(C)NC(=O)c1c(C(=O)Nc2cc(Cl)ccc2C)cccc1[N+](=O)[O-]` (stereo not drawn) [compound 838], the “Insecticidal effect on common cutworm” value in test [1] was “C (89-80)”. Also, in test [2], the “Insecticidal effect on diamondback moth” value is listed as “A (100)”. The “Insecticidal effect on rice leafroller” value in test [3] is “A (100)”.
With `Cc1ccc(Cl)cc1NC(=O)c1cccc([N+](=O)[O-])c1C(=O)NC(C)(C)C` [compound 842], the “Insecticidal effect on common cutworm” value in test [1] is on record as “A (100)”. The “Insecticidal effect on diamondback moth” value in test [2] is on record as “A (100)”. Also, in test [3], the “Insecticidal effect on rice leafroller” value was “D (79-50)”.
With `Cc1cc(OC(F)F)ccc1NC(=O)c1cccc(Cl)c1C(=O)NC1CC1` [compound 849], the “Insecticidal effect on common cutworm” value in test [1] was “B (99-90)”. The “Insecticidal effect on diamondback moth” value in test [2] is given as “A (100)”. In addition, the “Insecticidal effect on rice leafroller” value in test [3] is reported as “A (100)”.
Consider `Cc1ccc(Cl)cc1NC(=O)c1cccc([N+](=O)[O-])c1C(=O)NC1CC1` [compound 851], for which the “Insecticidal effect on common cutworm” value in test [1] is on record as “D (79-50)”. Moreover, the “Insecticidal effect on diamondback moth” value in test [2] was “A (100)”. Also, the “Insecticidal effect on rice leafroller” value in test [3] is on record as “A (100)”.
On to `Cc1ccc(F)cc1NC(=O)c1cccc([N+](=O)[O-])c1C(=O)NCCF` [compound 862], for which the “Insecticidal effect on common cutworm” value in test [1] was “D (79-50)”. The “Insecticidal effect on diamondback moth” value in test [2] is recorded as “A (100)”. Besides, the “Insecticidal effect on rice leafroller” value in test [3] was “D (79-50)”.
With `COCC(C)NC(=O)c1c(C(=O)Nc2ccc(OC(F)F)cc2C)cccc1[N+](=O)[O-]` (stereo not drawn) [compound 874], the “Insecticidal effect on common cutworm” value in test [1] was “C (89-80)”. Besides, the “Insecticidal effect on diamondback moth” value in test [2] is “A (100)”. Moreover, the “Insecticidal effect on rice leafroller” value in test [3] was “A (100)”.
For `CC(C)NC(=O)c1c(C(=O)Nc2ccc(C(F)(F)C(F)(F)F)cc2)cccc1[N+](=O)[O-]` [compound 890], the “Insecticidal effect on common cutworm” value in test [1] is listed as “A (100)”. For the same compound, the “Insecticidal effect on diamondback moth” value in test [2] is recorded as “A (100)”. In addition, in test [3], the “Insecticidal effect on rice leafroller” value is listed as “A (100)”.
For `CC(C)NC(=O)c1c(F)cccc1C(=O)Nc1ccc(C(F)(F)C(F)(F)F)cc1` [compound 891], the “Insecticidal effect on common cutworm” value in test [1] is given as “A (100)”. Also, the “Insecticidal effect on diamondback moth” value in test [2] was “A (100)”. In test [3], the “Insecticidal effect on rice leafroller” value is “A (100)”.
Turning to `CC(C)NC(=O)c1c(Cl)cccc1C(=O)Nc1ccc(C(F)(F)C(F)(F)F)cc1` [compound 893], the “Insecticidal effect on common cutworm” value in test [1] was “A (100)”. Besides, in test [2], the “Insecticidal effect on diamondback moth” value is “A (100)”. The “Insecticidal effect on rice leafroller” value in test [3] is recorded as “A (100)”.
Take `CC(C)NC(=O)c1cccc(Cl)c1C(=O)Nc1ccc(C(F)(F)C(F)(F)F)cc1` [compound 894]: the “Insecticidal effect on common cutworm” value in test [1] is listed as “A (100)”. Besides, the “Insecticidal effect on diamondback moth” value in test [2] is “A (100)”. In test [3], the “Insecticidal effect on rice leafroller” value is “A (100)”.
In the case of `CC(C)NC(=O)c1c(I)cccc1C(=O)Nc1ccc(C(F)(F)C(F)(F)F)cc1` [compound 895], the “Insecticidal effect on common cutworm” value in test [1] is recorded as “A (100)”. Besides, the “Insecticidal effect on diamondback moth” value in test [2] was “A (100)”. For the same compound, in test [3], the “Insecticidal effect on rice leafroller” value is recorded as “A (100)”.
As for `CC(C)NC(=O)c1c(F)cccc1C(=O)Nc1ccc(Oc2ccc(C(F)(F)F)cc2Cl)cc1F` [compound 901], in test [1], the “Insecticidal effect on common cutworm” value is listed as “D (79-50)”. For the same compound, the “Insecticidal effect on diamondback moth” value in test [2] is reported as “A (100)”. Besides, the “Insecticidal effect on rice leafroller” value in test [3] is given as “A (100)”.
On to `CC(C)NC(=O)c1c(Cl)cccc1C(=O)Nc1ccc(Oc2ccc(C(F)(F)F)cc2Cl)cc1F` [compound 903], for which the “Insecticidal effect on common cutworm” value in test [1] is “A (100)”. Moreover, the “Insecticidal effect on diamondback moth” value in test [2] was “A (100)”. In addition, in test [3], the “Insecticidal effect on rice leafroller” value was “A (100)”.
`Cc1cc(SC(F)(F)C(F)(F)F)ccc1NC(=O)c1cccc(F)c1C(=O)NC(C)C` [compound 905]: the “Insecticidal effect on common cutworm” value in test [1] was “A (100)”. Further, the “Insecticidal effect on diamondback moth” value in test [2] was “A (100)”. In addition, the “Insecticidal effect on rice leafroller” value in test [3] is “A (100)”.
With `Cc1cc(SC(F)(F)C(F)(F)F)ccc1NC(=O)c1c(F)cccc1C(=O)NC(C)C` [compound 906], the “Insecticidal effect on common cutworm” value in test [1] is reported as “D (79-50)”. The “Insecticidal effect on diamondback moth” value in test [2] is recorded as “A (100)”. In test [3], the “Insecticidal effect on rice leafroller” value is recorded as “A (100)”.
Regarding `Cc1cc(SC(F)(F)C(F)(F)F)ccc1NC(=O)c1cccc(Cl)c1C(=O)NC(C)C` [compound 907], the “Insecticidal effect on common cutworm” value in test [1] is on record as “A (100)”. Besides, the “Insecticidal effect on diamondback moth” value in test [2] was “A (100)”. Besides, the “Insecticidal effect on rice leafroller” value in test [3] is reported as “A (100)”.
